Laboratory results reported in US20250223268A1, “4-Methylsulfonylbenzamide Compound, Preparation Method, Herbicidal Composition And Use” (Jiangsu Flag Chemical Industry Co., Ltd., priority 2022, published 2025).

How the values were obtained:
Type in all cases: in vivo
Leptochloa chinensis [1] = assay: Greenhouse herbicidal activity and crop safety comparison (Test Example 2); conditions: Rate 150 g/ha; for inhibition at 150 g/ha: Dinebra chinensis, read-out: Leptochloa chinensis, control efficacy grading (fresh weight inhibition rate)
Outline: (§1)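 Fresh weight inhibition, banded into grades A to E (E <20%), was rated 14-21 days after foliar spraying of 3-6 leaf plants, or 14-30 days after a soil spray applied 24 h post-sowing.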

[2] = tested on: Oryza sativa subsp. indica; assay: as above; conditions: Rate 150 g/ha
Outline: as §1

[3] = tested on: Oryza sativa subsp. japonica; assay: as above; conditions: Rate 150 g/ha
Outline: as §1

Echinochloa crusgalli [4] = assay: as above; conditions: Rate 150 g/ha; for inhibition at 150 g/ha: Echinochloa crus-galli, read-out: Echinochloa crusgalli, control efficacy grading (fresh weight inhibition rate)
Outline: as §1

Digitaria sanguinalis = assay: Greenhouse herbicidal activity assay, post-emergence; conditions: Post-emergence test, rate 150 g a.i./hm^2, grade by fresh weight inhibition rate; for pest or weed control at 150 g/ha: Digitaria sanguinalis, read-out: Control efficacy grade, Digitaria sanguinalis
Outline: (§2)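 Letter grades (A: ≥80% to 100%; C: ≥40% to <60%; E: <20%) express fresh weight inhibition recorded 14-21 days post-spray. Weeds were treated on the leaves once they reached 3-6 leaves in chamber-grown pots, allowed to dry naturally, then kept in the chamber.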

Leptochloa chinensis [5] = assay: as above; conditions: Post-emergence test, rate 150 g a.i./hm^2, grade by fresh weight inhibition rate; for pest or weed control at 150 g/ha: Dinebra chinensis, read-out: Control efficacy grade, Leptochloa chinensis
Outline: as §2

Eclipta prostrata = assay: as above; conditions: Post-emergence test, rate 150 g a.i./hm^2, grade by fresh weight inhibition rate; for pest or weed control at 150 g/ha: Eclipta prostrata, read-out: Control efficacy grade, Eclipta prostrata
Outline: as §2

Cyperus iria = assay: as above; conditions: Post-emergence test, rate 150 g a.i./hm^2, grade by fresh weight inhibition rate; for pest or weed control at 150 g/ha: Cyperus iria, read-out: Control efficacy grade, Cyperus iria
Outline: as §2

Echinochloa crusgalli [6] = assay: as above; conditions: Post-emergence test, rate 150 g a.i./hm^2, grade by fresh weight inhibition rate; for pest or weed control at 150 g/ha: Echinochloa crus-galli, read-out: Control efficacy grade, Echinochloa crusgalli
Outline: as §2

SMILES	Leptochloa chinensis, control efficacy grading (fresh weight inhibition rate) (Leptochloa chinensis [1])	Oryza sativa subsp. indica, grading of fresh weight inhibition rate (crop safety) [2]	Oryza sativa subsp. japonica, grading of fresh weight inhibition rate (crop safety) [3]	Echinochloa crusgalli, control efficacy grading (fresh weight inhibition rate) (Echinochloa crusgalli [4])	Control efficacy grade, Digitaria sanguinalis (Digitaria sanguinalis)	Control efficacy grade, Leptochloa chinensis (Leptochloa chinensis [5])	Control efficacy grade, Eclipta prostrata (Eclipta prostrata)	Control efficacy grade, Cyperus iria (Cyperus iria)	Control efficacy grade, Echinochloa crusgalli (Echinochloa crusgalli [6])	inhibition at 150 g/ha (Leptochloa chinensis [1]) [%]	inhibition at 150 g/ha (Echinochloa crusgalli [4]) [%]	pest or weed control at 150 g/ha (Digitaria sanguinalis) [%]	pest or weed control at 150 g/ha (Leptochloa chinensis [5]) [%]	pest or weed control at 150 g/ha (Eclipta prostrata) [%]	pest or weed control at 150 g/ha (Cyperus iria) [%]	pest or weed control at 150 g/ha (Echinochloa crusgalli [6]) [%]
C=CCS(=O)(=O)c1c(S(C)(=O)=O)ccc(C(=O)Nc2nnco2)c1Cl [Compound 3-342]	A (Fresh weight inhibition rate≥80% to 100%)	E (Fresh weight inhibition rate<20%)	E (Fresh weight inhibition rate<20%)	A (Fresh weight inhibition rate≥80% to 100%)	A (Fresh weight inhibition rate≥80% to 100%)	A (Fresh weight inhibition rate≥80% to 100%)	A (Fresh weight inhibition rate≥80% to 100%)	A (Fresh weight inhibition rate≥80% to 100%)	A (Fresh weight inhibition rate≥80% to 100%)	–	–	–	–	–	–	–
CCCS(=O)(=O)c1c(S(C)(=O)=O)ccc(C(=O)Nc2nnc(CC)o2)c1Cl [Compound 3-387]	A (Fresh weight inhibition rate≥80% to 100%)	E (Fresh weight inhibition rate<20%)	E (Fresh weight inhibition rate<20%)	A (Fresh weight inhibition rate≥80% to 100%)	A (Fresh weight inhibition rate≥80% to 100%)	A (Fresh weight inhibition rate≥80% to 100%)	A (Fresh weight inhibition rate≥80% to 100%)	A (Fresh weight inhibition rate≥80% to 100%)	A (Fresh weight inhibition rate≥80% to 100%)	–	–	–	–	–	–	–
CCc1nnc(NC(=O)c2ccc(S(C)(=O)=O)c(S(=O)(=O)C(C)C)c2Cl)o1 [Compound 3-392, 2-chloro-N-(5-ethyl-1,3,4-oxadiazol-2-yl)-3-(isopropylsulfonyl)-4-(methylsulfonyl)benzamide]	–	E (Fresh weight inhibition rate<20%)	E (Fresh weight inhibition rate<20%)	–	–	–	–	–	–	80 to 100	80 to 100	80 to 100	80 to 100	80 to 100	80 to 100	80 to 100
CCc1nnc(NC(=O)c2ccc(S(C)(=O)=O)c(S(=O)(=O)CC3CC3)c2Cl)o1 [Compound 3-418]	A (Fresh weight inhibition rate≥80% to 100%)	E (Fresh weight inhibition rate<20%)	E (Fresh weight inhibition rate<20%)	A (Fresh weight inhibition rate≥80% to 100%)	A (Fresh weight inhibition rate≥80% to 100%)	A (Fresh weight inhibition rate≥80% to 100%)	A (Fresh weight inhibition rate≥80% to 100%)	A (Fresh weight inhibition rate≥80% to 100%)	A (Fresh weight inhibition rate≥80% to 100%)	–	–	–	–	–	–	–
CCc1nnc(NC(=O)c2ccc(S(C)(=O)=O)c(S(=O)(=O)C3CC3)c2Cl)o1 [Compound 3-423]	A (Fresh weight inhibition rate≥80% to 100%)	E (Fresh weight inhibition rate<20%)	E (Fresh weight inhibition rate<20%)	A (Fresh weight inhibition rate≥80% to 100%)	A (Fresh weight inhibition rate≥80% to 100%)	A (Fresh weight inhibition rate≥80% to 100%)	A (Fresh weight inhibition rate≥80% to 100%)	A (Fresh weight inhibition rate≥80% to 100%)	A (Fresh weight inhibition rate≥80% to 100%)	–	–	–	–	–	–	–
CCc1nnc(NC(=O)c2ccc(S(C)(=O)=O)c(S(=O)(=O)C3CCC3)c2Cl)o1 [Compound 3-428]	A (Fresh weight inhibition rate≥80% to 100%)	E (Fresh weight inhibition rate<20%)	E (Fresh weight inhibition rate<20%)	A (Fresh weight inhibition rate≥80% to 100%)	A (Fresh weight inhibition rate≥80% to 100%)	A (Fresh weight inhibition rate≥80% to 100%)	A (Fresh weight inhibition rate≥80% to 100%)	A (Fresh weight inhibition rate≥80% to 100%)	A (Fresh weight inhibition rate≥80% to 100%)	–	–	–	–	–	–	–
CCc1nnc(NC(=O)c2ccc(S(C)(=O)=O)c(S(=O)(=O)C3CCCC3)c2Cl)o1 [Compound 3-433]	A (Fresh weight inhibition rate≥80% to 100%)	E (Fresh weight inhibition rate<20%)	E (Fresh weight inhibition rate<20%)	A (Fresh weight inhibition rate≥80% to 100%)	A (Fresh weight inhibition rate≥80% to 100%)	A (Fresh weight inhibition rate≥80% to 100%)	A (Fresh weight inhibition rate≥80% to 100%)	A (Fresh weight inhibition rate≥80% to 100%)	A (Fresh weight inhibition rate≥80% to 100%)	–	–	–	–	–	–	–
C=CCS(=O)(=O)c1c(S(C)(=O)=O)ccc(C(=O)Nc2nnc(CC)o2)c1Cl [Compound 3-458]	A (Fresh weight inhibition rate≥80% to 100%)	E (Fresh weight inhibition rate<20%)	E (Fresh weight inhibition rate<20%)	A (Fresh weight inhibition rate≥80% to 100%)	A (Fresh weight inhibition rate≥80% to 100%)	A (Fresh weight inhibition rate≥80% to 100%)	A (Fresh weight inhibition rate≥80% to 100%)	A (Fresh weight inhibition rate≥80% to 100%)	A (Fresh weight inhibition rate≥80% to 100%)	–	–	–	–	–	–	–
CCCS(=O)(=O)c1c(S(C)(=O)=O)ccc(C(=O)Nc2nnc(C(C)C)o2)c1Cl [Compound 3-503, 2-chloro-N-(5-isopropyl-1,3,4-oxadiazol-2-yl)-4-(methylsulfonyl)-3-(propylsulfonyl)benzamide]	–	E (Fresh weight inhibition rate<20%)	E (Fresh weight inhibition rate<20%)	–	–	–	–	–	–	80 to 100	80 to 100	80 to 100	80 to 100	80 to 100	80 to 100	80 to 100
CC(C)c1nnc(NC(=O)c2ccc(S(C)(=O)=O)c(S(=O)(=O)C(C)C)c2Cl)o1 [Compound 3-508]	A (Fresh weight inhibition rate≥80% to 100%)	E (Fresh weight inhibition rate<20%)	E (Fresh weight inhibition rate<20%)	A (Fresh weight inhibition rate≥80% to 100%)	A (Fresh weight inhibition rate≥80% to 100%)	A (Fresh weight inhibition rate≥80% to 100%)	A (Fresh weight inhibition rate≥80% to 100%)	A (Fresh weight inhibition rate≥80% to 100%)	A (Fresh weight inhibition rate≥80% to 100%)	–	–	–	–	–	–	–
